Measurements as given in PubChem BioAssay AID1918938 (Molecular Pharmacology Branch, DTP, NCI, 2023).

Test system: 556581-035-R-J1-PDC complex spheroid viability
Assay: Anticancer human tumor 556581-035-R-J1-PDC patient-derived ovarian carcinoma cell line growth inhibition
Details: for IC50: curve of first compound; for viability, T/C: stronger effect = lower value
Method in brief: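 Multicellular complex spheroids of tumor cells with human endothelial cells (HUVEC) and mesenchymal stem cells; the LSD1 inhibitor iadademstat was combined with standard-of-care or investigational agents. Top concentration at or near clinical Cmax, half-log dilutions; final DMSO ≤0.25%.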

[1] = second compound 0.1 µM, first compound 0.00316 µM
[2] = second compound 0.1 µM, first compound 0.01 µM
[3] = second compound 0.1 µM, first compound 0.0316 µM
[4] = second compound 0.1 µM, first compound 0.1 µM
[5] = second compound 0.316 µM, first compound 0.00316 µM
[6] = second compound 0.316 µM, first compound 0.01 µM
[7] = second compound 0.316 µM, first compound 0.0316 µM
[8] = second compound 0.316 µM, first compound 0.1 µM
[9] = second compound 1 µM, first compound 0.00316 µM
[10] = second compound 1 µM, first compound 0.01 µM
[11] = second compound 1 µM, first compound 0.0316 µM
[12] = second compound 1 µM, first compound 0.1 µM
[13] = second compound 3.16 µM, first compound 0.00316 µM
[14] = second compound 3.16 µM, first compound 0.01 µM
[15] = second compound 3.16 µM, first compound 0.0316 µM
[16] = second compound 3.16 µM, first compound 0.1 µM
[17] = second compound 10 µM, first compound 0.00316 µM
[18] = second compound 10 µM, first compound 0.01 µM
[19] = second compound 10 µM, first compound 0.0316 µM
[20] = second compound 10 µM, first compound 0.1 µM
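Also: spheroids exposed to agents for seven days.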
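For viability, T/C in this document: 100% = DMSO vehicle control wells.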

CC[C@@]1(O)C(=O)OCc2c1cc1n(c2=O)Cc2cc3c(CN(C)C)c(O)ccc3nc2-1 + NC1CCC(NC2CC2c2ccccc2)CC1
IC50 (second compound 0.1 µM): 0.0147 µM
IC50 (second compound 0.316 µM): 0.0139 µM
IC50 (second compound 1 µM): 0.0144 µM
IC50 (second compound 3.16 µM): 0.0188 µM
IC50 (second compound 10 µM): 0.0115 µM
viability, T/C (second compound 0.1 µM, first compound 0.000316 µM): 78.7%
viability, T/C (second compound 0.1 µM, first compound 0.001 µM): 91.5%
viability, T/C [1]: 79%
viability, T/C [2]: 57.6%
viability, T/C [3]: 31.9%
viability, T/C [4]: 9.52%
viability, T/C (second compound 0.316 µM, first compound 0.000316 µM): 91.4%
viability, T/C (second compound 0.316 µM, first compound 0.001 µM): 82.2%
viability, T/C [5]: 81.8%
viability, T/C [6]: 55%
viability, T/C [7]: 32.5%
viability, T/C [8]: 13.3%
viability, T/C (second compound 1 µM, first compound 0.000316 µM): 79%
viability, T/C (second compound 1 µM, first compound 0.001 µM): 81.3%
viability, T/C [9]: 72.2%
viability, T/C [10]: 58%
viability, T/C [11]: 32.8%
viability, T/C [12]: 10.1%
viability, T/C (second compound 3.16 µM, first compound 0.000316 µM): 72.5%
viability, T/C (second compound 3.16 µM, first compound 0.001 µM): 89.8%
viability, T/C [13]: 73.9%
viability, T/C [14]: 63.8%
viability, T/C [15]: 38.5%
viability, T/C [16]: 10%
viability, T/C (second compound 10 µM, first compound 0.000316 µM): 64.4%
viability, T/C (second compound 10 µM, first compound 0.001 µM): 67.1%
viability, T/C [17]: 64.8%
viability, T/C [18]: 51.8%
viability, T/C [19]: 29.2%
viability, T/C [20]: 7.41%

COc1cc(C2c3cc4c(cc3C(OC3OC5COC(C)OC5C(O)C3O)C3COC(=O)C23)OCO4)cc(OC)c1O (stereo not given) + NC1CCC(NC2CC2c2ccccc2)CC1
IC50 (second compound 0.1 µM): 0.481 µM
IC50 (second compound 0.316 µM): 0.451 µM
IC50 (second compound 1 µM): 0.559 µM
IC50 (second compound 3.16 µM): 0.501 µM
IC50 (second compound 10 µM): 0.33 µM
viability, T/C (second compound 0.1 µM, first compound 0.00949 µM): 86.7%
viability, T/C (second compound 0.1 µM, first compound 0.03 µM): 84.7%
viability, T/C (second compound 0.1 µM, first compound 0.0949 µM): 68.6%
viability, T/C (second compound 0.1 µM, first compound 0.3 µM): 55.5%
viability, T/C (second compound 0.1 µM, first compound 0.949 µM): 42.3%
viability, T/C (second compound 0.1 µM, first compound 3 µM): 26.2%
viability, T/C (second compound 0.316 µM, first compound 0.00949 µM): 107%
viability, T/C (second compound 0.316 µM, first compound 0.03 µM): 84.7%
viability, T/C (second compound 0.316 µM, first compound 0.0949 µM): 75.3%
viability, T/C (second compound 0.316 µM, first compound 0.3 µM): 58.6%
viability, T/C (second compound 0.316 µM, first compound 0.949 µM): 36.1%
viability, T/C (second compound 0.316 µM, first compound 3 µM): 23.9%
viability, T/C (second compound 1 µM, first compound 0.00949 µM): 76.8%
viability, T/C (second compound 1 µM, first compound 0.03 µM): 76.2%
viability, T/C (second compound 1 µM, first compound 0.0949 µM): 68.3%
viability, T/C (second compound 1 µM, first compound 0.3 µM): 58.8%
viability, T/C (second compound 1 µM, first compound 0.949 µM): 42.6%
viability, T/C (second compound 1 µM, first compound 3 µM): 19.2%
viability, T/C (second compound 3.16 µM, first compound 0.00949 µM): 88.6%
viability, T/C (second compound 3.16 µM, first compound 0.03 µM): 66.5%
viability, T/C (second compound 3.16 µM, first compound 0.0949 µM): 74.9%
viability, T/C (second compound 3.16 µM, first compound 0.3 µM): 53.5%
viability, T/C (second compound 3.16 µM, first compound 0.949 µM): 45.8%
viability, T/C (second compound 3.16 µM, first compound 3 µM): 23.4%
viability, T/C (second compound 10 µM, first compound 0.00949 µM): 71.3%
viability, T/C (second compound 10 µM, first compound 0.03 µM): 68.4%
viability, T/C (second compound 10 µM, first compound 0.0949 µM): 68.7%
viability, T/C (second compound 10 µM, first compound 0.3 µM): 48.3%
viability, T/C (second compound 10 µM, first compound 0.949 µM): 38.8%
viability, T/C (second compound 10 µM, first compound 3 µM): 28.4%

Nc1ncn(C2CC(O)C(CO)O2)c(=O)n1 (stereo not given) + NC1CCC(NC2CC2c2ccccc2)CC1
IC50 (second compound 0.1 µM): > 1 µM
IC50 (second compound 0.316 µM): > 1 µM
IC50 (second compound 1 µM): > 1 µM
IC50 (second compound 3.16 µM): > 1 µM
IC50 (second compound 10 µM): > 1 µM
viability, T/C [1]: 96%
viability, T/C [2]: 98%
viability, T/C [3]: 87.2%
viability, T/C [4]: 80%
viability, T/C (second compound 0.1 µM, first compound 0.316 µM): 79.3%
viability, T/C (second compound 0.1 µM, first compound 1 µM): 77.2%
viability, T/C [5]: 87.8%
viability, T/C [6]: 90.2%
viability, T/C [7]: 84%
viability, T/C [8]: 82.2%
viability, T/C (second compound 0.316 µM, first compound 0.316 µM): 79.1%
viability, T/C (second compound 0.316 µM, first compound 1 µM): 77.7%
viability, T/C [9]: 96.5%
viability, T/C [10]: 84.3%
viability, T/C [11]: 89.5%
viability, T/C [12]: 75.2%
viability, T/C (second compound 1 µM, first compound 0.316 µM): 71.8%
viability, T/C (second compound 1 µM, first compound 1 µM): 76.8%
viability, T/C [13]: 88.9%
viability, T/C [14]: 84.5%
viability, T/C [15]: 82.7%
viability, T/C [16]: 67.2%
viability, T/C (second compound 3.16 µM, first compound 0.316 µM): 80.5%
viability, T/C (second compound 3.16 µM, first compound 1 µM): 76.7%
viability, T/C [17]: 73.8%
viability, T/C [18]: 82.5%
viability, T/C [19]: 76.4%
viability, T/C [20]: 70.8%
viability, T/C (second compound 10 µM, first compound 0.316 µM): 65.9%
viability, T/C (second compound 10 µM, first compound 1 µM): 64.7%
